# Experimental data taken from PMC10826043 (BMC Complementary Medicine and Therapies, 2024).
# Where two headings read alike, the source gives them in different places.
# Assays:
# α-amylase [1] = details: validation set, cited from earlier work
# [2] = molecular target: T1, α-amylase from porcine pancreas (Sus scrofa, UniProt P00690); assay: In vitro pancreatic α-amylase inhibitory assay (starch/DNS, 540 nm); assay type: biochemical; details: 1% starch, pH 6.9, 25 °C, read-out: IC50 (α-amylase inhibition)
# T1 construct: α-amylase from porcine pancreas (A3176); purchased Sigma-Aldrich (Germany) A3176; host or cells: porcine pancreas (tissue-derived)
# T1 sequence (P00690 16-511): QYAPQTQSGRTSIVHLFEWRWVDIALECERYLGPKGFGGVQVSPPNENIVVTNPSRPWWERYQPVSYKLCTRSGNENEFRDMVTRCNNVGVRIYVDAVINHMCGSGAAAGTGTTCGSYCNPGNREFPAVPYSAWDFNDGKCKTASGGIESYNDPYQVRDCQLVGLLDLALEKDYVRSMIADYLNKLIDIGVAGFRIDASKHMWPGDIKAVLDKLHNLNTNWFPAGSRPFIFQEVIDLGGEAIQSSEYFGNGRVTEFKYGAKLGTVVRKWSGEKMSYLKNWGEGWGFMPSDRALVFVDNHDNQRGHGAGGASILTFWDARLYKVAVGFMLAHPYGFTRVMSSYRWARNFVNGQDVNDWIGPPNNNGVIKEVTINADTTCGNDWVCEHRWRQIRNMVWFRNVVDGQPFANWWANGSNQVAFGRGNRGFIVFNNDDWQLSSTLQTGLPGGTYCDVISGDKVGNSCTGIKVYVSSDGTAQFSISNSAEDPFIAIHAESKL
# Description: Analytical purity grade solvents were used throughout the study.
# With reference to the established technique, the assay was carried out quantitatively with minor adjustments. Initially, 500µL test solution was preincubated with 500µL α-amylase solution (0.55 unit/mL) at 25°C for 10 min. The α-amylase was prepared in a buffer solution (0.02M sodium phosphate pH 6.9 with 0.006M NaCl). Afterwards, 500µL of 1% w/v starch in buffer solution was mixed in and left to incubate for 10 min at 25°C. To bring the reaction to a halt, 1mL dinitrosalicylic acid (DNS) was introduced and the mixture was placed in a boiling water bath for 3.5 min. After cooling to room temperature, the mixture was then diluted using 10mL distilled water and absorbance was measured using a Laxco spectrophotometer (α1502, Laxco Inc., USA) at λ 540nm. Blanks used throughout the experiment were made by adding pure buffer instead of α-amylase solution. […] To calculate the pancreatic α-amylase inhibitory activity, the following equation was used: %Inhibtion=100×1-Abs540nmExtract-Abs540nmPositivecontrol/Abs540nmNegativecontrol-Abs540nmPositivecontrol
# α-amylase [3] = molecular target: T2, α-amylase (Sus scrofa, UniProt P00690); assay: Combination analysis of α-amylase inhibition (CompuSyn: median-effect, isobologram, CI, DRI); assay type: biochemical, porcine; details: for Dose (mM) Kaempferol: kaempferol alone
# T2 construct: α-amylase from porcine pancreas (A3176); purchased Sigma-Aldrich (Germany) A3176; host or cells: porcine pancreas (tissue-derived)
# T2 sequence (P00690 16-511): T1 sequence (P00690 16-511)
# Description: These include: median effect, isobolographic, combination index, and lastly, dose reduction index analyses.
# Data input included each inhibitors’ independent activity and the summation of both inhibitors’ activity when used in conjunction of each other. […] 2.6.
# This method of analysis relies on its namesake equation, the median-effect equation which stems from the general mass-action law principle. Each inhibitor’s sigmoidal dose–effect plot was individually generated in addition to their respective combination. Thereafter, the plot was transfigured linearly into median-effect plots. The median-effect equation is described as: fa/fu=D/Dm^m
# D represents the dose of the inhibitor, Dm is the inhibitor’s dose causing a decrease of 50% in the enzyme’s activity, fa is the fraction affected by dose D , fu is the unaffected fraction ( fu = 1 – fa ), and m the curve’s sigmoidicity coefficient. Through logarithmic transformation, the equation becomes: Logfa/fu=mlogD-mlog(Dm)
# This, in turn, results in the median-effect plot. A plot where y=log(fa/fu) against x=log(D) with m being the slope and log(Dm) , the x-intercept. Dm and m are obtained from the median-effect plot. To determine the data’s conformity to the general mass-action principle, the linear correlation coefficient (r) of the plot is assessed.
# Using each inhibitor’s individual effect, this method of analysis is employed to assess the combined effect of two inhibitors. A graph, wherein the x- and y- axes represent the doses of inhibitors A and B, respectively, is plotted. The doses, a and b denote the dose of inhibitor A and B, respectively, resulting in the same efficacy when used individually. (e.g.: At x % inhibition, a = CA,x and b = CB,x ). To assess the combined effects of inhibitors A and B, an additive line must first be established. This is accomplished by connecting two points of the same efficacy (e.g.: connecting a with b). Based on the respective position of the combination data points relative to the additive line, the nature of the interaction can be determined; synergism, addition, or antagonism are indicated by data points lying below, on, or above the additive line, respectively.
# The combination index (CI) quantitatively evaluates the type of interaction between two inhibitors at a series of inhibition levels. CI is calculated by means of the following equation [38]: CI=CA,x/ICx,A+CB,x/ICx,B Where ICx,A and ICx,B are the doses of inhibitors A and B, respectively, required to produce x % inhibition when each inhibitor is used individually. Whereas CA,x and CB,x are the doses of inhibitors A and B, respectively, required to produce x % inhibition when a binary mixture is used. Based on the resulting CI, the nature of the inhibitors’ interaction can be concluded. A CI lower than, equal to, or greater than 1 is indicative of synergism, addition, or antagonism, respectively. Alternatively, the interaction present between the two inhibitors can be deduced via the combination index ( fa -CI) plot.
# The dose reduction index (DRI) was calculated for synergistic binary combinations to measure the fold decrease in the dose of each inhibitor at a given effect level, relative to the dose of each inhibitor when used solitarily resulting in the same effect. DRI can be calculated as follows: DRI=IC50[solitaryinhibitor]/IC50[inhibitorincombination]
# DRI values > 1 are favored, reflecting a decrease in dose while maintaining or enhancing the inhibitor’s efficacy.
structure (smiles),measurement,setting,value
O=C(O)c1ccc(O)c(O)c1 [Protocatechuic acid],IC50,α-amylase [1]; supplement ref [10],2650 ± 160 µM
COc1cc(-c2oc3cc(O)cc(O)c3c(=O)c2O)ccc1O [Isorhamnetin],IC50,α-amylase [1]; supplement ref [12],24900 ± 427 µM
COc1cc(C(=O)O)ccc1O [Vanillic acid],IC50,α-amylase [1]; supplement ref [10],2050 ± 10 µM
"O=C(/C=C/c1ccc(O)c(O)c1)O[C@@H]1C[C@](O)(C(=O)O)C[C@@H](O)[C@H]1O [Chlorogenic Acid, chlorogenic acid]",IC50,α-amylase [1]; supplement ref [9],1050 ± 18 µM
same,IC50,[2],7390 ± 220 µM
OC[C@H]1O[C@@H](Oc2cc3c(O)cc(O)cc3[o+]c2-c2ccc(O)c(O)c2)[C@H](O)[C@@H](O)[C@@H]1O [Cyanidin-3-glucoside],IC50,α-amylase [1]; supplement ref [5],24 ± 3 µM
Oc1cc(O)c2c(c1)OC(c1ccc(O)c(O)c1)C(O)C2 (stereo not drawn) [Catechin],IC50,α-amylase [1]; supplement ref [9],1160 ± 24 µM
same,IC50,[2],5040 ± 40 µM
O=c1c(O)c(-c2ccc(O)cc2)oc2cc(O)cc(O)c12 [Kaempferol],IC50,α-amylase [3],4840 µM
same,m (slope of median-effect plot),α-amylase [3],1.18
same,r (correlation coefficient of median-effect plot),α-amylase [3],1.00
same,DRI Kaempferol,α-amylase [3]; fold dose reduction in combination with acarbose at 26% inhibition,2.66
same,DRI Kaempferol,α-amylase [3]; fold dose reduction in combination with acarbose at 86% inhibition,2.27
same,DRI Kaempferol,α-amylase [3]; fold dose reduction in combination with acarbose at 91% inhibition,1.11
same,Dose (mM) Kaempferol,α-amylase [3]; dose needed for 26% inhibition,1.99 mM
same,Dose (mM) Kaempferol,α-amylase [3]; dose needed for 86% inhibition,22.6 mM
same,Dose (mM) Kaempferol,α-amylase [3]; dose needed for 91% inhibition,34.5 mM
same,IC50,α-amylase [1]; supplement ref [3],16.5 ± 1.84 µM
same,IC50,[2],4840 ± 140 µM
"O=c1c(Cc2ccc(O)cc2)coc2cc(O)cc(O)c12 [5,7-dihydroxy-3-(4′-hydroxybenzyl) chromone]",IC50,α-amylase [1]; supplement ref [11],2590 ± 50 µM
OCC1=C[C@@H](O)[C@@H]2C=CO[C@@H](O[C@@H]3O[C@H](CO)[C@@H](O)[C@H](O)[C@H]3O)[C@H]12 [Aucubin],IC50,[2],2370 µM
O=C(O)c1ccccc1O [Salicylic acid],IC50,α-amylase [1]; supplement ref [13],13000 µM
O=c1cc(-c2ccccc2)oc2cc(O)c(O)c(O)c12 [Baicalein],IC50,α-amylase [1]; supplement ref [12],11200 ± 200 µM
O=C(O[C@@H]1Cc2c(O)cc(O)cc2O[C@@H]1c1cc(O)c(O)c(O)c1)c1cc(O)c(O)c(O)c1 [Epigallocatechin gallate],IC50,α-amylase [1]; supplement ref [4],11.5 ± 0.02 µM
COc1cc(-c2[o+]c3cc(O)cc(O)c3cc2O[C@@H]2O[C@H](CO)[C@@H](O)[C@H](O)[C@H]2O)ccc1O [Peonidin-3-glucoside],IC50,α-amylase [1]; supplement ref [5],75 ± 7 µM
O=C(O)C1OC(Oc2cc(O)c3c(=O)cc(-c4ccc(O)cc4)oc3c2)C(O)C(O)C1O [Apigenin-7-O-β-D-glucopyranuronide],IC50,α-amylase [1]; supplement ref [3],10.4 ± 2.51 µM
"OC[C@H]1O[C@@H](Oc2cc3c(O[C@@H]4O[C@H](CO)[C@@H](O)[C@H](O)[C@H]4O)cc(O)cc3[o+]c2-c2ccc(O)c(O)c2)[C@H](O)[C@@H](O)[C@@H]1O [Cyanidin-3,5-glucoside]",IC50,α-amylase [1]; supplement ref [5],40 ± 7 µM
"O=c1cc(-c2ccc(O)c(O)c2)oc2cc(O)ccc12 [7, 3', 4'-trihydroxyflavone]",IC50,α-amylase [1]; supplement ref [3],16.3 ± 0.52 µM
Oc1cc(O)c2c(c1)O[C@H](c1ccc(O)c(O)c1)[C@H](O)C2 [L-epicatechin],IC50,α-amylase [1]; supplement ref [3],31.5 ± 2.21 µM
"O=C(/C=C/c1ccc(O)c(O)c1)O[C@H](Cc1ccc(O)c(O)c1)C(=O)O [Rosmarinic Acid, rosmarinic acid]",IC50,[2],7000 ± 90 µM
O=c1cc(-c2ccc(O)c(O)c2)oc2cc(O)cc(O)c12 [Luteolin],IC50,α-amylase [1]; supplement ref [3],14.6 ± 0.74 µM
same,IC50,[2],6320 ± 30 µM
O=C(O)C=Cc1ccc(O)cc1 [p-Coumaric acid],IC50,α-amylase [1]; supplement ref [13],34100 µM
